Test results reported in patent US20250230193A1, “CYCLIC COMPOUND HAVING SELECTIVE KRAS INHIBITORY EFFECT ON HRAS AND NRAS” (CHUGAI SEIYAKU KABUSHIKI KAISHA, priority 2022, published 2025).
Where a SMILES comes first, the peptide text is derived from it. Bridges are numbered along the chain shown (N, C = ends). [ ]: non-standard residue; d: D form. The star is where a group is joined. hPhe(3-Cl-4-CF3) = N[C@@H](CCc1ccc(C(F)(F)F)c(Cl)c1)C(=O)O; 3Oxa8azabicyclo(3.2.1)octane = C1CC2COCC1N2*; NEtPhe(4-Me) = CCN[C@@H](Cc1ccc(C)cc1)C(=O)O; NMePhe(4-Me) = CN[C@@H](Cc1ccc(C)cc1)C(=O)O; NMeGly(cPent) = CN[C@H](C(=O)O)C1CCCC1; Hyp = O=C(O)[C@@H]1C[C@@H](O)CN1; NMeI = CC[C@H](C)[C@H](NC)C(=O)O; NMeD = CN[C@@H](CC(=O)O)C(=O)O; NMeL = CN[C@@H](CC(C)C)C(=O)O; NMeV = CN[C@H](C(=O)O)C(C)C; Morpholide = C1CN(*)CCO1; NMeA = CN[C@@H](C)C(=O)O; NMeAib = CNC(C)(C)C(=O)O; Nle = CCCC[C@H](N)C(=O)O; Piperidide = C1CCN(*)CC1; Ac5c = NC1(C(=O)O)CCCC1; Aze = O=C(O)[C@@H]1CCN1; Sar = CNCC(=O)O

Experiments:
[1] = target: GDP-bound NRAS wild-type protein (Homo sapiens, UniProt P01111); test: Binding to NRAS by surface plasmon resonance (SPR), Single Cycle Kinetics; settings: KD ratio NRAS/KRAS, SPR
[2] = target: GDP-bound HRAS wild-type protein (Homo sapiens, UniProt P01112); test: Binding to HRAS by surface plasmon resonance (SPR), Single Cycle Kinetics; settings: KD ratio HRAS/KRAS, SPR
Chain of GDP-bound HRAS wild-type protein (P01112 whole entry): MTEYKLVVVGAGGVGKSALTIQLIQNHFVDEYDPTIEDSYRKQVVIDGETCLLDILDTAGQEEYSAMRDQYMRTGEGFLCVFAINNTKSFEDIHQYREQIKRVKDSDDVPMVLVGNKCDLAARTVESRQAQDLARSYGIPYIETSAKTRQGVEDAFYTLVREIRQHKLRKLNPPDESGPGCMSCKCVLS

Chain of GDP-bound NRAS wild-type protein (P01111 whole entry): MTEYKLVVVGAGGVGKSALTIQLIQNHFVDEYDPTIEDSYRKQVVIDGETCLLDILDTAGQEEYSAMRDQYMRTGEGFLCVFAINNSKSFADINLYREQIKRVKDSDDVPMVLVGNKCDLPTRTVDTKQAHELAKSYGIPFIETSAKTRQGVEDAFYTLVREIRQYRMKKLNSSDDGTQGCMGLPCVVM

## CCO[C@@H]1C[C@H]2C(=O)NC3(CCCC3)C(=O)N(C)[C@@H](C3CCCC3)C(=O)N(C)[C@H](C(=O)N3CCOCC3)CC(=O)N(C)[C@@H](CC(C)C)C(=O)N[C@@H]([C@@H](C)CC)C(=O)N(C)CC(=O)N(C)CC(=O)N(CC)[C@@H](Cc3ccc(C)cc3)C(=O)N(C)CC(=O)N[C@@H](CCc3ccc(C(F)(F)F)c(Cl)c3)C(=O)N2C1 [PP0042] ([NMeL]I[Sar][Sar][NEtPhe(4-Me)][Sar][hPhe(3-Cl-4-CF3)][Hyp](Et)[Ac5c][NMeGly(cPent)][NMeD]-Morpholide; lactam N-11)
[1]
  NRAS/KRAS (ratio of KD for GDP-bound NRAS wild-type to KD for KRAS): C (A compound having a KD ratio of 0.1 or more and less than 3 is denoted as C)
[2]
  HRAS/KRAS (ratio of KD for GDP-bound HRAS wild-type to KD for KRAS): C (A compound having a KD ratio of 0.1 or more and less than 3 is denoted as C)

## CC[C@H](C)[C@@H]1NC(=O)[C@H](CC(C)C)N(C)C(=O)C[C@@H](C(=O)N2CCOCC2)N(C)C(=O)[C@H]([C@@H](C)CC)N(C)C(=O)C2(CCCC2)NC(=O)[C@@H]2CCCN2C(=O)[C@H](CCc2ccc(C(F)(F)F)c(Cl)c2)NC(=O)CN(C)C(=O)[C@H](Cc2ccc(C)cc2)N(CC)C(=O)CN(C)C(=O)CN(C)C1=O [PP0043] ([NMeL]I[Sar][Sar][NEtPhe(4-Me)][Sar][hPhe(3-Cl-4-CF3)]P[Ac5c][NMeI][NMeD]-Morpholide; lactam N-11)
[1]
  NRAS/KRAS (ratio of KD for GDP-bound NRAS wild-type to KD for KRAS): C (A compound having a KD ratio of 0.1 or more and less than 3 is denoted as C)
[2]
  HRAS/KRAS (ratio of KD for GDP-bound HRAS wild-type to KD for KRAS): C (A compound having a KD ratio of 0.1 or more and less than 3 is denoted as C)

## CC[C@H](C)[C@@H]1NC(=O)[C@H](CC(C)C)N(C)C(=O)C[C@@H](C(=O)N2CCOCC2)N(C)C(=O)[C@H](C(C)C)N(C)C(=O)C2(CCCC2)NC(=O)[C@@H]2CCCN2C(=O)[C@H](CCc2ccc(C(F)(F)F)c(Cl)c2)NC(=O)CN(C)C(=O)[C@H](Cc2ccc(C)cc2)N(CC)C(=O)CN(C)C(=O)CN(C)C1=O [PP0044] ([NMeL]I[Sar][Sar][NEtPhe(4-Me)][Sar][hPhe(3-Cl-4-CF3)]P[Ac5c][NMeV][NMeD]-Morpholide; lactam N-11)
[1]
  NRAS/KRAS (ratio of KD for GDP-bound NRAS wild-type to KD for KRAS): C (A compound having a KD ratio of 0.1 or more and less than 3 is denoted as C)
[2]
  HRAS/KRAS (ratio of KD for GDP-bound HRAS wild-type to KD for KRAS): C (A compound having a KD ratio of 0.1 or more and less than 3 is denoted as C)

## CC[C@H](C)[C@@H]1NC(=O)[C@H](CC(C)C)N(C)C(=O)C[C@@H](C(=O)N2CCOCC2)N(C)C(=O)[C@H](CC(C)C)N(C)C(=O)C2(CCCC2)NC(=O)[C@@H]2CCCN2C(=O)[C@H](CCc2ccc(C(F)(F)F)c(Cl)c2)NC(=O)CN(C)C(=O)[C@H](Cc2ccc(C)cc2)N(CC)C(=O)CN(C)C(=O)CN(C)C1=O [PP0045] ([NMeL]I[Sar][Sar][NEtPhe(4-Me)][Sar][hPhe(3-Cl-4-CF3)]P[Ac5c][NMeL][NMeD]-Morpholide; lactam N-11)
[1]
  NRAS/KRAS (ratio of KD for GDP-bound NRAS wild-type to KD for KRAS): C (A compound having a KD ratio of 0.1 or more and less than 3 is denoted as C)
[2]
  HRAS/KRAS (ratio of KD for GDP-bound HRAS wild-type to KD for KRAS): C (A compound having a KD ratio of 0.1 or more and less than 3 is denoted as C)

## CCCC[C@@H]1NC(=O)[C@H](CCc2ccc(C(F)(F)F)c(Cl)c2)NC(=O)CN(C)C(=O)[C@H](Cc2ccc(C)cc2)N(C)C(=O)[C@@H]2CCN2C(=O)[C@H](C)N(C)C(=O)[C@H]([C@@H](C)CC)NC(=O)[C@H](CC(C)C)N(C)C(=O)C[C@@H](C(=O)N2CCCCC2)N(C)C(=O)[C@H](CC(C)C)NC(=O)C(C)(C)N(C)C1=O [PP0047] ([NMeL]I[NMeA][Aze][NMePhe(4-Me)][Sar][hPhe(3-Cl-4-CF3)][Nle][NMeAib]L[NMeD]-Piperidide; lactam N-11)
[1]
  NRAS/KRAS (ratio of KD for GDP-bound NRAS wild-type to KD for KRAS): C (A compound having a KD ratio of 0.1 or more and less than 3 is denoted as C)
[2]
  HRAS/KRAS (ratio of KD for GDP-bound HRAS wild-type to KD for KRAS): C (A compound having a KD ratio of 0.1 or more and less than 3 is denoted as C)

## CCCC[C@@H]1NC(=O)[C@H](CCc2ccc(C(F)(F)F)c(Cl)c2)NC(=O)CN(C)C(=O)[C@H](Cc2ccc(C)cc2)N(CC)C(=O)[C@@H]2CCN2C(=O)[C@H](C)N(C)C(=O)[C@H]([C@@H](C)CC)NC(=O)[C@H](CC(C)C)N(C)C(=O)C[C@@H](C(=O)N2CCCCC2)N(C)C(=O)[C@H](CC(C)C)NC(=O)C(C)(C)N(C)C1=O [PP0048] ([NMeL]I[NMeA][Aze][NEtPhe(4-Me)][Sar][hPhe(3-Cl-4-CF3)][Nle][NMeAib]L[NMeD]-Piperidide; lactam N-11)
[1]
  NRAS/KRAS (ratio of KD for GDP-bound NRAS wild-type to KD for KRAS): C (A compound having a KD ratio of 0.1 or more and less than 3 is denoted as C)
[2]
  HRAS/KRAS (ratio of KD for GDP-bound HRAS wild-type to KD for KRAS): C (A compound having a KD ratio of 0.1 or more and less than 3 is denoted as C)

## CCCC[C@@H]1NC(=O)[C@H](CCc2ccc(C(F)(F)F)c(Cl)c2)NC(=O)CN(C)C(=O)[C@H](Cc2ccc(C)cc2)N(C)C(=O)CN(C)C(=O)CN(C)C(=O)[C@H]([C@@H](C)CC)NC(=O)[C@H](CC(C)C)N(C)C(=O)C[C@@H](C(=O)N2CCCCC2)N(C)C(=O)[C@H](CC(C)C)NC(=O)C(C)(C)N(C)C1=O [PP0049] ([NMeL]I[Sar][Sar][NMePhe(4-Me)][Sar][hPhe(3-Cl-4-CF3)][Nle][NMeAib]L[NMeD]-Piperidide; lactam N-11)
[1]
  NRAS/KRAS (ratio of KD for GDP-bound NRAS wild-type to KD for KRAS): C (A compound having a KD ratio of 0.1 or more and less than 3 is denoted as C)
[2]
  HRAS/KRAS (ratio of KD for GDP-bound HRAS wild-type to KD for KRAS): C (A compound having a KD ratio of 0.1 or more and less than 3 is denoted as C)

## CCCC[C@@H]1NC(=O)[C@H](CCc2ccc(C(F)(F)F)c(Cl)c2)NC(=O)CN(C)C(=O)[C@H](Cc2ccc(C)cc2)N(CC)C(=O)CN(C)C(=O)CN(C)C(=O)[C@H]([C@@H](C)CC)NC(=O)[C@H](CC(C)C)N(C)C(=O)C[C@@H](C(=O)N2CCCCC2)N(C)C(=O)[C@H](CC(C)C)NC(=O)C(C)(C)N(C)C1=O [PP0050] ([NMeL]I[Sar][Sar][NEtPhe(4-Me)][Sar][hPhe(3-Cl-4-CF3)][Nle][NMeAib]L[NMeD]-Piperidide; lactam N-11)
[1]
  NRAS/KRAS (ratio of KD for GDP-bound NRAS wild-type to KD for KRAS): B (a compound having 3 or more and less than 10 is denoted as B)
[2]
  HRAS/KRAS (ratio of KD for GDP-bound HRAS wild-type to KD for KRAS): C (A compound having a KD ratio of 0.1 or more and less than 3 is denoted as C)

## CC[C@H](C)[C@@H]1NC(=O)[C@H](CC(C)C)N(C)C(=O)C[C@@H](C(=O)N2C3CCC2COC3)N(C)C(=O)[C@H](C2CCCC2)N(C)C(=O)C2(CCCC2)NC(=O)[C@@H]2CCCN2C(=O)[C@H](CCc2ccc(C(F)(F)F)c(Cl)c2)NC(=O)CN(C)C(=O)[C@H](Cc2ccc(C)cc2)N(CC)C(=O)CN(C)C(=O)CN(C)C1=O [PP0051] ([NMeL]I[Sar][Sar][NEtPhe(4-Me)][Sar][hPhe(3-Cl-4-CF3)]P[Ac5c][NMeGly(cPent)][NMeD]-{3Oxa8azabicyclo(3.2.1)octane}; lactam N-11)
[1]
  NRAS/KRAS (ratio of KD for GDP-bound NRAS wild-type to KD for KRAS): C (A compound having a KD ratio of 0.1 or more and less than 3 is denoted as C)
[2]
  HRAS/KRAS (ratio of KD for GDP-bound HRAS wild-type to KD for KRAS): C (A compound having a KD ratio of 0.1 or more and less than 3 is denoted as C)
